The structures appear in SMILES notation.

Chain of 11β-HSD1 (P28845 whole entry): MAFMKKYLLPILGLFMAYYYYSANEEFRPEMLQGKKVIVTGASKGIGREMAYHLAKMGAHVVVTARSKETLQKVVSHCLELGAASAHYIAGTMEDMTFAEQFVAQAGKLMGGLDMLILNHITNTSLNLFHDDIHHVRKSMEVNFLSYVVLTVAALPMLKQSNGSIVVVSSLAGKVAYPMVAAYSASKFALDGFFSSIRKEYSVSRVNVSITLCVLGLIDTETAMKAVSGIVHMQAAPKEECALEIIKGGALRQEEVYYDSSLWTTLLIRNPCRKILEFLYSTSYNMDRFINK

This assay deals with 11β-HSD1 (Homo sapiens (Human), UniProt P28845). Kind of assay: 11β-HSD1 inhibiting activity, HTRF assay with human microsomal fractions. The following applies: 160 nM cortisone, 200 μM NADPH, 2 h at 37° C. Type of assay: biochemical. As to the method:
The inhibiting activity of 11β-HSD1 derived from microsomal fractions was measured using the HTRF assay (62CO2PEB, Cisbio). […] Europium (Eu^3+) cryptate and XL665-conjugated cortisol were then added to each well and incubated for an additional 2 h at room temperature. The Cortisol concentration was calculated u sing a calibration curve. The IC50 values were calculated from dose response curves using GraphPad Prism software.
One may read the IC50 as the point on the concentration scale where inhibition reaches its midpoint. Low values mean higher potency, high ones lower potency. `NC(=O)C12CC3CC(C1)C(NC(=O)C1(NS(=O)(=O)c4cc(Cl)c(Cl)cc4F)CC1)C(C3)C2` (centres unmarked) [Example 45, E-4-[1-(2-fluoro-4,5-dichloro-benzenesulfonylamino)cyclopropanecarboxamido]-adamantan-1-carboxylic acid amide] returned a concentration for half-maximal inhibition (IC50) of 32.5 nM.

In turn, `NC(=O)C12CC3CC(C1)C(NC(=O)C1(NS(=O)(=O)c4ccc(F)cc4F)CC1)C(C3)C2` (centres unmarked) [Example 44] displayed an IC50 of 79.1 nM.

As to `CC(C)(CNS(=O)(=O)c1cccc(Cl)c1)C(=O)NC1C2CC3CC1CC(C(N)=O)(C3)C2` (centres unmarked) [Example 67, E-4-(3-(3-chlorobenzenesulfonylamino)-2,2-dimethylpropanamido)adamantan-1-carboxylic acid amide], the IC50 amounted to 7.1 nM.

`NC(=O)C12CC3CC(C1)C(NC(=O)C1(CNS(=O)(=O)c4cc(Cl)cc(Cl)c4)CC1)C(C3)C2` (centres unmarked) [Example 18] registered a 50% inhibitory concentration (IC50) of 23.9 nM.

Molecule `CC(C)(CNS(=O)(=O)c1ccccc1)C(=O)NC1C2CC3CC1CC(C(N)=O)(C3)C2` (centres unmarked) [Example 69, E-4-[3-(benzenesulfonylamino)-2,2-dimethylpropanamido]adamantan-1-carboxylic acid amide] yielded an IC50 of 28.6 nM.

In the case of `Cn1nccc1S(=O)(=O)NC1(C(=O)NC2C3CC4CC2CC(C(N)=O)(C4)C3)CC1` (centres unmarked) [Example 58, E-4-[1-(1-methyl-1H-pyrazole-5-sulfonylamino)cyclopropanecarboxamido]-adamantan-1-carboxylic acid amide], the IC50 is 17.3 nM.

The molecule `NC(=O)C12CC3CC(C1)C(NC(=O)C1(CNS(=O)(=O)c4cc(Cl)c(Cl)cc4F)CC1)C(C3)C2` (centres unmarked) [Example 16, E-4-[1-((4,5-dichloro-2-fluoro-benzenesulfonylamino)methyl)cyclopropanecarboxamido]-adamantan-1-carboxylic acid amide] had an IC50 of 5 nM. This IC50 is about 3.5-fold lower than that of the molecule before.

Molecule `Cc1c(Cl)cccc1S(=O)(=O)NC1(C(=O)NC2C3CC4CC2CC(C(N)=O)(C4)C3)CC1` (centres unmarked) [Example 41, E-4-[1-(3-chloro-2-methyl-benzenesulfonylamino)cyclopropanecarboxamido]-adamantan-1-carboxylic acid amide] had an IC50 of 10 nM.

`CN(CC1(C(=O)NC23CC4CC(CC(C4)C2)C3)CC1)S(=O)(=O)c1ccccc1F` [Example 31, N-(adamantan-1-yl)-1-((2-fluoro-N-methylbenzenesulfonylamino)methyl)cyclopropanecarboxamido]: the IC50 came out at 1.2 nM. This IC50 lies about 8.3-fold lower than the previous one.

For `NC(=O)C12CC3CC(C1)C(NC(=O)c1cccc(NS(=O)(=O)c4ccccc4C(F)(F)F)c1F)C(C3)C2` (centres unmarked) [Example 125, E-4-[2-fluoro-3-(2-(trifluoromethyl)benzenesulfonylamino)benzamido]adamantan-1-carboxylic acid amide], the half-inhibitory concentration (IC50) is 11.6 nM. This IC50 is about 9.7-fold higher than that of the molecule before.

In turn, `Cc1cc(S(=O)(=O)NC2(C(=O)NC3C4CC5CC3CC(C(N)=O)(C5)C4)CC2)c(Cl)cc1Cl` (centres unmarked) [Example 43, E-4-[1-(2,4-dichloro-5-methyl-benzenesulfonylamino)cyclopropanecarboxamido]-adamantan-1-carboxylic acid amide] gave an IC50 of 29.7 nM. Against the preceding molecule, the IC50 is about 2.6-fold higher.

Molecule `O=C(O)CC[C@]12C[C@@H]3C[C@H](C1)[C@@H](NC(=O)C1(CNS(=O)(=O)c4ccccc4F)CC1)[C@@H](C3)C2` [Example 33, E-3-(4-(1((2-fluoro-benzenesulfonylamino)methyl)cyclopropanecarboxamido)adamantan-1-yl)propanoic acid] yielded a half-inhibitory concentration (IC50) of 1.5 nM.

Molecule `NC(=O)C12CC3CC(C1)C(NC(=O)c1cccc(NS(=O)(=O)c4ccccc4Cl)c1)C(C3)C2` (centres unmarked) [Example 106] came in with a half-maximal inhibitory concentration (IC50) of 4.8 nM.

On to `CCN(CC1(C(=O)NC2C3CC4CC2CC(C(N)=O)(C4)C3)CC1)S(=O)(=O)c1ccccc1F` (centres unmarked) [Example 32, E-4-[1-((N-ethyl-fluoro-benzenesulfonylamino)methyl)cyclopropanecarboxamido]-adamantan-1-carboxylic acid amide], for which inhibition was half-maximal at 1.4 nM (IC50). Against the preceding molecule, the IC50 is about 3.4-fold lower.

Molecule `NC(=O)C12CC3CC(C1)C(NC(=O)c1cccc(NS(=O)(=O)c4ccco4)c1)C(C3)C2` (centres unmarked) [Example 103, E-4-[3-(furan-2-sulfonylamino)-benzamido]-adamantan-1-carboxylic acid amide] came in with an IC50 of 23.8 nM.

`NC(=O)C12CC3CC(C1)C(NC(=O)c1cccc(NS(=O)(=O)c4c(Cl)cc(Cl)cc4Cl)c1)C(C3)C2` (centres unmarked) [Example 117, E-4-[3-(2,4,6-trichloro-benzenesulfonylamino)-benzamido]-adamantan-1-carboxylic acid amide] returned a 50% inhibitory concentration (IC50) of 5 nM.

Consider `Cc1c(Cl)cccc1S(=O)(=O)NCC1(C(=O)NC2C3CC4CC2CC(C(N)=O)(C4)C3)CC1` (centres unmarked) [Example 5, E-4-[1-((3-chloro-2-methyl-benzenesulfonylamino)methyl)cyclopropanecarboxamido]-adamantan-1-carboxylic acid amide], for which the half-maximal inhibitory concentration (IC50) came to 2.7 nM.

Take `Cc1c(Cl)cccc1S(=O)(=O)NCC(C)(C)C(=O)NC1C2CC3CC1CC(C(N)=O)(C3)C2` (centres unmarked) [Example 70, E-4-[3-(3-chloro-2-methyl-benzenesulfonylamino)-2,2-dimethylpropanamido]adamantan-1-carboxylic acid amide]: the IC50 was determined as 6.2 nM. This IC50 is about 2.3-fold higher than that of the molecule before.

On to `O=C(NC1CC2CCC1C2)C1(NS(=O)(=O)c2cccc(Cl)c2)CC1` (centres unmarked) [Example 55, N-(bicyclo[2.2.1]heptan-2-yl)-1-(3-chloro-benzenesulfonylamino)cyclopropanecarboxamide], for which half-maximal inhibition (IC50) required 8.3 nM.

The molecule `NC(=O)C12CC3CC(C1)C(NC(=O)c1cccc(NS(=O)(=O)c4ccccc4C(F)(F)F)c1)C(C3)C2` (centres unmarked) [Example 115] showed an IC50 of 19.1 nM. This IC50 lies about 2.3-fold higher than the previous one.

`NC(=O)C12CC3CC(C1)C(NC(=O)c1cccc(NS(=O)(=O)c4cc(F)cc(Cl)c4)c1)C(C3)C2` (centres unmarked) [Example 118, E-4-[3-(3-chloro-5-fluoro-benzenesulfonylamino)-benzamido]-adamantan-1-carboxylic acid amide] displayed an IC50 of 20.4 nM.

`Cc1cccc(F)c1S(=O)(=O)N(C)CC1(C(=O)NC2C3CC4CC2CC(C(N)=O)(C4)C3)CC1` (centres unmarked) [Example 13, E-4-[1-((2-fluoro-N,6-dimethyl-benzenesulfonylamino)methyl)cyclopropanecarboxamido]-adamantan-1-carboxylic acid amide] came in with an IC50 of 2.8 nM.

Molecule `NC(=O)C12CC3CC(C1)C(NC(=O)c1cccc(NS(=O)(=O)c4ccc(C(F)(F)F)c(Cl)c4)c1)C(C3)C2` (centres unmarked) [Example 114, E-4-[3-(3-chloro-4-(trifluoromethyl)benzenesulfonylamino)benzamido]adamantan-1-carboxylic acid amide] showed an IC50 of 30.7 nM. This IC50 is about 11-fold higher than that of the molecule before.

On to `NC(=O)C12CC3CC(C1)C(NC(=O)C1(CNS(=O)(=O)c4ccc(F)c(F)c4)CC1)C(C3)C2` (centres unmarked) [Example 21, E-4-[1-((3,4-difluoro-benzenesulfonylamino)methyl)cyclopropanecarboxamido]-adamantan-1-carboxylic acid amide], for which the IC50 amounted to 30.8 nM.

In turn, `NC(=O)C12CC3CC(C1)C(NC(=O)C1(CNC(=O)N4CCNc5ccccc54)CC1)C(C3)C2` (centres unmarked) [Example 146, E-3,4-dihydro-2H-quinoxalin-1-carboxylic acid[1-(5-carbamoyl-adamantan-2-ylcarbamoyl)-cyclopropylmethyl]-amide] registered a 50% inhibitory concentration (IC50) of 128 nM. This IC50 lies about 4.2-fold higher than the previous one.

The molecule `Cc1cc(S(=O)(=O)NCC2(C(=O)NC3C4CC5CC3CC(C(N)=O)(C5)C4)CC2)c(F)cc1Cl` (centres unmarked) [Example 15, E-4-[1-((4-chloro-2-fluoro-5-methyl-benzenesulfonylamino)methyl)cyclopropanecarboxamido]-adamantan-1-carboxylic acid amide] came in with an IC50 of 28 nM. This IC50 is about 4.6-fold lower than that of the molecule before.

Turning to `Cc1nc(C)c(S(=O)(=O)Nc2cccc(C(=O)NC3C4CC5CC3CC(C(N)=O)(C5)C4)c2)s1` (centres unmarked) [Example 107], the concentration for half-maximal inhibition (IC50) amounted to 60.3 nM.

The molecule `NC(=O)CCC12CC3CC(C1)C(NC(=O)C1(CNS(=O)(=O)c4ccccc4F)CC1)C(C3)C2` (centres unmarked) [Example 34, E-N-(5-(3-amino-3-oxopropyl)adamantan-2-yl)-1-((2-fluoro-benzenesulfonylamino)methyl)cyclopropanecarboxamide] registered a half-inhibitory concentration (IC50) of 29.9 nM.

With `NC(=O)C12CC3CC(C1)C(NC(=O)c1cccc(NS(=O)(=O)c4ccc(F)cc4)c1)C(C3)C2` (centres unmarked) [Example 94, E-4-[3-(4-fluoro-benzenesulfonylamino)-benzamido]-adamantan-1-carboxylic acid amide], the concentration for half-maximal inhibition (IC50) was determined as 75.7 nM. Against the preceding molecule, the IC50 is about 2.5-fold higher.

Turning to `NC(=O)C12CC3CC(C1)C(NC(=O)c1cccc(NS(=O)(=O)c4cccc(Cl)c4)c1F)C(C3)C2` (centres unmarked) [Example 132, E-4-[2-fluoro-3-(3-chlorobenzenesulfonylamino)benzamido]adamantan-1-carboxylic acid amide], the IC50 turned out to be 148 nM.

For `CN(C(C)(C)C(=O)NC1C2CC3CC1CC(C(N)=O)(C3)C2)S(=O)(=O)c1ccccc1F` (centres unmarked) [Example 72, E-4-[2-(2-fluoro-N-methyl-benzenesulfonylamino)-2-methylpropanamido]adamantan-1-carboxylic acid amide], the half-inhibitory concentration (IC50) stood at 1.2 nM. Compared with the last molecule, the IC50 is about 120-fold lower.

Consider `NC(=O)C12CC3CC(C1)C(NC(=O)C1(CNC(=O)c4ccc(F)c(F)c4)CC1)C(C3)C2` (centres unmarked) [Example 25], for which 9.6 nM corresponded to half-maximal inhibition (IC50).

Take `NC(=O)C12CC3CC(C1)C(NC(=O)C1(CNC(=O)N4CCc5ccccc5C4)CC1)C(C3)C2` (centres unmarked) [Example 140]: it took 97.8 nM to reach half-maximal inhibition (IC50).

`NC(=O)C12CC3CC(C1)C(NC(=O)C1(NS(=O)(=O)c4cccs4)CC1)C(C3)C2` (centres unmarked) [Example 48, E-4-[1-(thiophen-2-sulfonylamino)cyclopropanecarboxamido]-adamantan-1-carboxylic acid amide] came in with an IC50 of 62.8 nM. Against the preceding molecule, the IC50 is about 1.6-fold lower.

Turning to `NC(=O)C12CC3CC(C1)C(NC(=O)C1(CNC(=O)N4CCCc5ccccc54)CC1)C(C3)C2` (centres unmarked) [Example 141, E-3,4-dihydro-2H-quinolin-1-carboxylic acid[1-(5-carbamoyl-adamantan-2-ylcarbamoyl)-cyclopropylmethyl]-amide], the 50% inhibitory concentration (IC50) was found to be 52.5 nM. This IC50 and that of the molecule before are within 1.5-fold of each other.

The values are drawn from patent US9464044B2, “Compound having ability to inhibit 11Beta-HSD1 enzyme or pharmaceutically acceptable salt thereof, method for producing same, and pharmaceutical composition containing same as active ingredient” (AHN-GOOK PHARMACEUTICAL CO., LTD., priority 2012, dated 2016).
